# Source: patent publication US20060014806A1 (published 2006)
row,melting point [°C],Structure (SMILES)
1,100 to 103,CO/N=C1/C=C(c2ccc(OCCCOc3c(Cl)cc(OCC=C(Cl)Cl)cc3Cl)cc2)CC1
2,78 to 81,COC(=O)NCC#Cc1ccc(OCCCOc2c(Cl)cc(OCC=C(Cl)Cl)cc2Cl)cc1
3,88 to 93,CC(C)NC(=O)/C(C#N)=C/c1ccc(OCCCOc2c(Cl)cc(OCC=C(Cl)Cl)cc2Cl)cc1
